Results taken from patent US8426220B2, “Utilization of shield effect for dopamine detection and reagent development” (National Tsing Hua University, priority 2009, dated 2013).

Key:
[1] = biological target: T1, hMAO B-GFP fusion protein (medium form of dopamine probe) in PC12 cells (Homo sapiens, UniProt P27338); assay: MAO substrates MPTP and L-DOPA added to cells expressing dopamine probe elicit GFP fluorescence; format: cell-based; settings: for GFP fluorescence after drug treatment: PC12 cells expressing medium form of dopamine probe; for green fluorescence (release from shield effect) after treatment: preliminary experiment, excitation of 488 nm laser, a part of the cells
T1 construct: expressed in transfected cells
Source text: Additions of MAO Substrates 1-methyl-4-phenyl-1,2,3,6-tetrahydropyridine (MPTP) and L-DOPA in Cells Expressing Dopamine Probe Elicit GFP Fluorescence
MPTP is a widely used compound as an MAO substrate. It is also used for measuring the enzyme activity of the MAO protein. The L-DOPA is a stable dopamine precursor and has been extensively used for the treatment of Parkinson's disease. After entering the cell, it could be converted into dopamine by the dopa decarboxylase. Both of the drugs could bind to dopamine transporter and be transported into the PC12 cells.

[2] = system: E. coli strain BL21; assay: GFP fluorescent signal of dopamine probes and controls in living E. coli BL21, confocal microscopy; format: cell-based; settings: living E. coli BL21 after IPTG induction, excited by 488 nm laser, no substrate
[3] = system: PC12 cell line; assay: GFP fluorescent signal of dopamine probes and controls in PC12 stable cell lines, confocal microscopy; format: cell-based, rat; settings: excited by 488 nm laser, no substrate
Source text: The rat pheochromocytoma cells (PC12 cell) were transfected with sequences of GFP, ΔhMAO B, and the probe protein through vector containing internal ribosome entry site (IRES). After antibiotic selection for more than a month, cell lines consistently expressing dopamine probe proteins were successfully established. The cell lines were detected by GFP antibody in Western blotting and observed by confocal microscopy.

[4] = differentiated PC12 cell line (NGF)
[5] = undifferentiated PC12 cell line

Molecule: CN1CC=C(c2ccccc2)CC1 [MPTP, 1-methyl-4-phenyl-1,2,3,6-tetrahydropyridine]
- GFP fluorescence after drug treatment ([1]; 1 mM MPTP): strong GFP fluorescence
- green fluorescence (release from shield effect) after treatment [1]: green fluorescence in those cells was successfully emitted

Molecule: N[C@@H](Cc1ccc(O)c(O)c1)C(=O)O [L-DOPA]
- GFP fluorescence after drug treatment ([1]; 100 μM L-dopa): strong GFP fluorescence
- green fluorescence (release from shield effect) after treatment [1]: green fluorescence in those cells was successfully emitted

Molecule: GFP: full-length green fluorescent protein, SEQ ID NO: 2, control [reference compound]
- GFP fluorescent signal [2]: Evident expression of green fluorescent signal
- GFP fluorescent signal ([2]; listed as full length GFP): clear fluorescent signals
- GFP fluorescent signal [3, 4]: clear fluorescent signals
- GFP fluorescent signal [3, 5]: clear fluorescent signals

B1: ΔhMAO B (protein)
chain: MSNKCDVVVVGGGISGMAAAKLLHDSGLNVVVLEARDRVGGRTYTLRNQKVKYVDLGGSYVGPTQNRILRLAKELGLETYKVNEVERLIHHVKGKSYPFRGPFPPVWNPITYLDHNNFWRTMDDMGREIPSDAPWKAPLAEEWDNMTMKELLDKLCWTESAKQLATLFVNLCVTAETHEVSALWFLWYVKQCGGTTRIISTTNGGQERKFVGGSGQVSERIMDLLGDRVKLERPVIYIDQTRENVLVETLNHEMYEAKYVISAIPPTLGMKIHFNPPLPMMRNQMITRVPLGSVIKCIVYYKEPFWRKKDYCGTMIIDGEEAPVAYTLDDTKPEGNYAAIMGFILAHKARKLARLTKEERLKKLCELYAKVLGSLEALEPVHYEEKNWCEEQYSGGCYTTYFPPGILTQYGRVLRQPVDRIYFAGTETATHWSGYMEGAVEAGERAAREILHAMGKIPEDEI
- GFP fluorescent signal [2]: no fluorescent signal
- GFP fluorescent signal [3, 4]: no signal
- GFP fluorescent signal [3, 5]: no signal

B2: hMAO B: the complete human monoamine oxidase B, SEQ ID NO: 1, control (protein, listed as Homo sapiens)
chain: MSNKCDVVVVGGGISGMAAAKLLHDSGLNVVVLEARDRVGGRTYTLRNQKVKYVDLGGSYVGPTQNRILRLAKELGLETYKVNEVERLIHHVKGKSYPFRGPFPPVWNPITYLDHNNFWRTMDDMGREIPSDAPWKAPLAEEWDNMTMKELLDKLCWTESAKQLATLFVNLCVTAETHEVSALWFLWYVKQCGGTTRIISTTNGGQERKFVGGSGQVSERIMDLLGDRVKLERPVIYIDQTRENVLVETLNHEMYEAKYVISAIPPTLGMKIHFNPPLPMMRNQMITRVPLGSVIKCIVYYKEPFWRKKDYCGTMIIDGEEAPVAYTLDDTKPEGNYAAIMGFILAHKARKLARLTKEERLKKLCELYAKVLGSLEALEPVHYEEKNWCEEQYSGGCYTTYFPPGILTQYGRVLRQPVDRIYFAGTETATHWSGYMEGAVEAGERAAREILHAMGKIPEDEIWQSEPESVDVPAQPITTTFLERHLPSVPGLLRLIGLTTIFSATALGFLAHKRGLLVRV
modifications: mat_peptide (1)..(520)
- GFP fluorescent signal [2]: no fluorescent signal
